According to article PMC9127750, “Structure-based design of CDC42 effector interaction inhibitors for the treatment of cancer” (Cell reports, 2022):
“And” between values parts separate entries of the source, which are not always exact repeats. Identical values can stand only once.

Tested on: WM3248 melanoma cells, 486 antibodies
Experiment: Reverse phase protein arrays (RPPA)
Assay type: cell-based, Human
Excerpt: Pellets were snap frozen in liquid nitrogen and shipped to MD Anderson Cancer Center core RPPA facility for RPPA analysis (Table S5). Three biological replicates for each sample were generated.
Nomenclatures on the RPPA heatmaps: name_of_antibody.species_of_antibody.status_of_antibody. V - antibody validated; C - validation of antibody in progress; Q - antibody nonspecific; E – under evaluation; antibodies raised in M - mouse, G - goat, R - rabbit, or T - rat.

[1] = Norm_5, replicates 1-3 and Average, relative to Norm_0

`CN(C)c1cccc(Nc2cc(-c3ccccc3)nc(C3CCNCC3)n2)c1` [ARN22089, N1,N1-dimethyl-N3-(6-phenyl-2-(piperidin-4-yl)pyrimidin-4-yl)benzene-1,3-diamine] was tested, and the “ATRX.R.C RPPA signal, normalized” value [1] was 0.868 and 1.119 and 1.361 and 1.116, the “ATR_pS428.R.C RPPA signal, normalized” value [1] was 1.018 and 1.013 and 1.046 and 1.026 and the “AceCS1.R.V RPPA signal, normalized” value [1] was 1.085 and 0.933 and 1.019. For the same molecule, the “Akt1.R.V RPPA signal, normalized” value [1] was 0.915 and 0.974 and 0.812 and 0.900, the “Akt1_pS473.R.V RPPA signal, normalized” value [1] was 1.006 and 0.879 and 0.961 and the “Akt2.R.V RPPA signal, normalized” value [1] was 0.917 (2×) and 0.925 and 0.908. The “Akt2_pS474.R.C RPPA signal, normalized” value [1] was 1.056 and 1.115, the “Akt.R.V RPPA signal, normalized” value [1] was 0.986 and 0.968 and 1.009 and the “Akt_pS473.R.V RPPA signal, normalized” value [1] was 2.087 and 1.212 and 1.121 and 1.473. For the same molecule, the “Akt_pT308.R.V RPPA signal, normalized” value [1] was 1.212 and 0.937 and 1.110, the “Ambra1_pS52.R.C RPPA signal, normalized” value [1] was 0.888 and 0.910 and 0.903 and 0.900 and the “Annexin.I.M.V RPPA signal, normalized” value [1] was 0.981 and 1.012 and 1.278. For the same molecule, the “Annexin.VII.M.V RPPA signal, normalized” value [1] was 1.019 and 0.975 and 0.977 and 0.990, the “Atg3.R.V RPPA signal, normalized” value [1] was 1.081 and 0.975 and 1.056 and the “Atg4B.R.C RPPA signal, normalized” value [1] was 1.096 and 1.370 and 1.167. The “Atg5.R.C RPPA signal, normalized” value [1] was 1.011 and 1.078 and 1.020, the “Atg7.R.V RPPA signal, normalized” value [1] was 1.022 and 1.027 and the “Aurora.A.R.C RPPA signal, normalized” value [1] was 0.652 and 0.973 and 0.927 and 0.851. The “Aurora.ABC_pT288_pT232_pT198.R.C RPPA signal, normalized” value [1] was 0.793 and 0.871 and 0.899 and 0.855, the “Aurora.B.R.V RPPA signal, normalized” value [1] was 0.896 and 1.084 and 0.923 and 0.968 and the “Axl.R.V RPPA signal, normalized” value [1] was 0.968 and 1.169 and 1.152 and 1.097. For the same molecule, the “B7.H3.R.C RPPA signal, normalized” value [1] was 1.106 and 0.952 and 0.992 and 1.017, the “B7.H4.R.C RPPA signal, normalized” value [1] was 1.026 and 0.982 and 1.007 and 1.005 and the “B.Raf.R.C RPPA signal, normalized” value [1] was 1.062 and 1.061. For the same molecule, the “B.Raf_pS445.R.V RPPA signal, normalized” value [1] was 1.018 and 1.017 and 1.057 and 1.031, the “BAP1.M.V RPPA signal, normalized” value [1] was 0.935 and 0.995 and 0.932 and 0.954 and the “BCL2A1.R.V RPPA signal, normalized” value [1] was 1.271 and 0.801 and 1.003. The “BMK1.Erk5_pT218_Y220.R.V RPPA signal, normalized” value [1] was 0.965 and 0.943 and 0.924, the “BRCA1.M.C RPPA signal, normalized” value [1] was 0.876 and 0.959 and 0.998 and 0.944 and the “BRD4.R.V RPPA signal, normalized” value [1] was 1.085 and 1.161 and 1.113. The “Bad_pS112.R.V RPPA signal, normalized” value [1] was 1.029 and 1.014 and 1.062 and 1.035, the “Bak.R.C RPPA signal, normalized” value [1] was 1.012 and 1.001 and 1.061 and 1.025 and the “Bax.R.V RPPA signal, normalized” value [1] was 1.015 and 1.032 and 0.955 and 1.001. The “Bcl2.R.C RPPA signal, normalized” value [1] was 0.966 and 1.014 and 0.939 and 0.973, the “Bcl.xL.R.V RPPA signal, normalized” value [1] was 1.144 and 0.772 and 0.984 and the “Beclin.R.C RPPA signal, normalized” value [1] was 0.940 and 1.010 and 0.868 and 0.939. For the same molecule, the “BiP.GRP78.M.C RPPA signal, normalized” value [1] was 0.904 and 0.981 and 0.932 and 0.939, the “Bid.R.C RPPA signal, normalized” value [1] was 1.008 and 0.999 and 1.060 and 1.022 and the “Bim.R.V RPPA signal, normalized” value [1] was 0.866 and 0.980 and 0.919. For the same molecule, the “X4E.BP1.R.V RPPA signal, normalized” value [1] was 0.986 and 1.022 and 1.747 and 1.252, the “X4E.BP1_pS65.R.V RPPA signal, normalized” value [1] was 1.142 and 1.063 and 0.945 and 1.050 and the “X4E.BP1_pT37_T46.R.V RPPA signal, normalized” value [1] was 1.104 and 1.054 (2×). For the same molecule, the “X14.3.3.zeta.R.V RPPA signal, normalized” value [1] was 0.999 and 1.014, the “X14.3.3βR.V RPPA signal, normalized” value [1] was 0.972 and 0.950 and 1.017 and 0.980 and the “X14.3.3εM.C RPPA signal, normalized” value [1] was 0.936 and 0.999 and 0.976 and 0.971. The “X53BP1.R.V RPPA signal, normalized” value [1] was 0.978 and 0.924 and 0.982, the “b.Actin.R.C RPPA signal, normalized” value [1] was 0.918 and 0.939 and 0.975 and the “b.Catenin.R.V RPPA signal, normalized” value [1] was 0.994 and 0.895 and 0.845. For the same molecule, the “b.Catenin_pT41_S45.R.V RPPA signal, normalized” value [1] was 1.007 and 0.992 and 1.022, the “c.Abl.R.V RPPA signal, normalized” value [1] was 1.034 and 1.085 and 1.017 and the “c.Abl_pY412.R.C RPPA signal, normalized” value [1] was 0.992 and 0.994 and 1.009. The “c.IAP2.R.C RPPA signal, normalized” value [1] was 1.048 and 1.023, the C.Raf.R.C normalized signal (Norm_5 Average) was 0.955 and the C.Raf_pS338.R.V normalized signal (Norm_5 Average) was 1.097. The CA9.R.C normalized signal (Norm_5 Average) was 0.944, the CD2.M.C normalized signal (Norm_5 Average) was 0.959 and the CD4.R.V normalized signal (Norm_5 Average) was 1.051. For the same molecule, the CD5.M.C normalized signal (Norm_5 Average) was 0.995, the CD20.R.C normalized signal (Norm_5 Average) was 0.920 and the CD26.R.V normalized signal (Norm_5 Average) was 0.984. For the same molecule, the CD29.M.V normalized signal (Norm_5 Average) was 0.963, the CD38.R.C normalized signal (Norm_5 Average) was 1.035 and the CD44.R.C normalized signal (Norm_5 Average) was 0.944. It also gave a CD45.M.V normalized signal (Norm_5 Average) of 0.967, a CD49b.M.V normalized signal (Norm_5 Average) of 0.979 and a CD68.M.C normalized signal (Norm_5 Average) of 0.978. It also gave a CD74.M.V normalized signal (Norm_5 Average) of 0.927, a CD134.R.V normalized signal (Norm_5 Average) of 0.971 and a CD171.M.V normalized signal (Norm_5 Average) of 0.783. The CDK9.R.V normalized signal (Norm_5 Average) was 0.955, the CDKN2A.R.C normalized signal (Norm_5 Average) was 0.941 and the CDT1.R.V normalized signal (Norm_5 Average) was 0.908. The CENP.A.R.V normalized signal (Norm_5 Average) was 0.910, the CHD1L.R.V normalized signal (Norm_5 Average) was 1.009 and the COG3.R.V normalized signal (Norm_5 Average) was 1.046. For the same molecule, the CRABP1.R.C normalized signal (Norm_5 Average) was 0.948, the CRABP2.R.V normalized signal (Norm_5 Average) was 0.874 and the CSK.R.C normalized signal (Norm_5 Average) was 0.850. For the same molecule, the Calnexin.R.V normalized signal (Norm_5 Average) was 0.963, the Caspase.3.cleaved.R.C normalized signal (Norm_5 Average) was 1.016 and the Caspase.7.cleaved..R.C normalized signal (Norm_5 Average) was 1.054. For the same molecule, the Caspase.8.M.Q normalized signal (Norm_5 Average) was 0.985.
